Reference: article PMC8443589, “Modelling human liver fibrosis in the context of non-alcoholic steatohepatitis using a microphysiological system” (Communications Biology, 2021)
Where “and” joins values, the source holds several entries; their conditions need not be identical. Identical values can stand only once.

Experiments:
[1] = system: liver MPS NASH model + TGFβ (PHH, KC and HSC co-cultures, high fat); test: Secreted cytokine profile of enhanced liver MPS NASH model with TGFβ dosed with OCA or ELF (Fig 6a); format: cell-based, human; conditions: for IL-1RA production, fold change compared to control / IL-4 production, fold change compared to control / IL-6 production, fold change compared to control / IL-8 production, fold change compared to control / IP-10 production, fold change compared to control / MCP-1 production, fold change compared to control / MIP-1a production, fold change compared to control / MIP-1b production, fold change compared to control / VEGF production, fold change compared to control: vs NASH + TGFβ control
Description: (§1) The systems biology approach identified TGFβ to be a key driver in creating a more advanced NASH phenotype in the MPS model, with enhanced fibrotic markers and reduced liver function. […] Therefore, we explored how effective pharmacological intervention would be for NASH microtissues with high NPC numbers supplemented with TGFβ and exposed them to varying concentrations of OCA and ELF QD as previously described (Supp. Fig. 6a). […] OCA had the greatest effect on IL-1Rα whereas ELF had the greatest effect on MCP-1 reflecting the fact that while both candidate drugs have anti-inflammatory properties, but their mechanisms of action are different. […] Finally, we used our quantitative fibrosis imaging assay to assess the effect of each candidate drug on collagen-1 deposition and α-SMA expression (Fig. 6c). […] Both candidate drugs caused a significant reduction in collagen-1 deposition and α-SMA expression, with the highest concentrations of OCA and ELF causing an 80% reduction in α-SMA expression and a 75% reduction in collagen-1 deposition (Fig. 6c).
(§2) Fig. 6 Using enhanced liver MPS NASH model with TGFβ, Obeticholic acid and Elafibranor modulate disease phenotype to a greater extent than in standard NASH model. PHH, KC and HSC co-cultures were cultured in the MPS platform under high-fat conditions and dosed with varying concentrations of Obeticholic acid (OCA) and Elafibranor (ELF) QD or vehicle control for 10 days, following an initial 4-day pre-culture phase. Throughout the compound dosing period TGFβ was also dosed onto all microtissues (NASH only vehicle control samples were also included in the study for comparison, which were not treated with TGFβ or dosed with any compound). a The secreted cytokine profile from treated liver microtissues was compared to determine the effects of each compound on the inflammatory profile of the liver with samples analysed at day 8 and 14 of the culture. Data were normalised by Z-transformation to allow comparison of all analytes (white = undetected). b The expression of fibrosis-associated biomarkers was analysed on day 14 media samples and compared to NASH + TGFβ control samples. c Liver microtissues were stained for collagen-type I, α-SMA, nuclei (DAPI), phalloidin (green) and imaged by confocal microscopy. Representative images are shown and scale bars 200 µm. Staining of microtissues was quantified by measuring total fluorescence intensity throughout individual microtissues, each data point represents an average of all microtissues per MPS culture (min 8, max 20). All datapoints shown with error bars highlighting means ± SD, all data from a minimum of three independent cultures: all comparisons were made to NASH + TGFβ control samples.
Cytokine profiles in cell culture medium samples were also analysed by Luminex array for determination of 38 analytes in total, consisting of cytokines, chemokines, and growth factors using the MILLIPLEX MAP Human Cytokine/Chemokine Magnetic Bead Panel - Premixed 38 Plex (Merck Millipore, USA).
(§3) Liver microtissues were cultured for 4 days in HEP-FAT medium, before dosing with obeticholic acid or elafibranor. Both compounds were dissolved in DMSO, diluted in cell culture medium (final DMSO concentration ≤1%) and added to microtissues during a full medium change every two days and in addition on the intervening days compounds were spiked into the media to increase drug concentration back to desired concentrations. Cultures were maintained in the presence of the compound, for a total of 10 days in the presence or absence of TGFβ.

[2] = system: liver MPS NASH model + TGFβ (PHH, KC and HSC co-cultures, high fat); test: Fibrosis-associated soluble biomarkers (TIMP-1, pro-collagen 1) in liver MPS NASH model with TGFβ dosed with OCA or ELF (Fig 6b); format: cell-based, human; conditions: for Pro-collagen 1 / TIMP-1: NASH + TGF, individual replicates, listed as ELF
Description: as §1, §2
Soluble biomarkers in cell culture medium from the MPS were analysed by enzyme-linked immunosorbent assay (ELISA); IL-6 was measured by Human IL-6 DuoSet ELISA (R&D Systems); MCP-1 was measured by Human CCL2/MCP-1 DuoSet ELISA (R&D Systems); pro-collagen 1 was measured by Human Pro-Collagen I α1 DuoSet (R&D Systems); TIMP-1 was measured by Human TIMP-1 Quantikine ELISA Kit (R&D Systems); Fibronectin was measured by Human Fibronectin DuoSet ELISA (R&D Systems); YKL-40 was measured by Human Chitinase 3-like 1 Quantikine ELISA Kit (R&D Systems); Albumin secretion was measured by Human Albumin AssayMax™ ELISA kit (Assay Pro, St. Charles, MO). For all assays, the manufacturer’s protocol was followed.
as §3

CSc1ccc(C(=O)/C=C/c2cc(C)c(OC(C)(C)C(=O)O)c(C)c2)cc1 [Elafibranor]
IL-1RA production, fold change compared to control ([1]; 1.3 µM, Day 8): 0.9952 fold change
IL-4 production, fold change compared to control ([1]; 1.3 µM, Day 8): 1.184 fold change
IL-6 production, fold change compared to control ([1]; 1.3 µM, Day 8): 1.1389 fold change
IL-8 production, fold change compared to control ([1]; 1.3 µM, Day 8): 1.023 fold change
IP-10 production, fold change compared to control ([1]; 1.3 µM, Day 8): 1.0718 fold change
MCP-1 production, fold change compared to control ([1]; 1.3 µM, Day 8): 1.264 fold change
MIP-1a production, fold change compared to control ([1]; 1.3 µM, Day 8): 0.709 fold change
MIP-1b production, fold change compared to control ([1]; 1.3 µM, Day 8): 0.6796 fold change
VEGF production, fold change compared to control ([1]; 1.3 µM, Day 8): 1.105 fold change
IL-1RA production, fold change compared to control ([1]; 1.3 µM, Day 14): 0.9067 fold change
IL-4 production, fold change compared to control ([1]; 1.3 µM, Day 14): 0.6872 fold change
IL-6 production, fold change compared to control ([1]; 1.3 µM, Day 14): 0.5754 fold change
IL-8 production, fold change compared to control ([1]; 1.3 µM, Day 14): 0.6606 fold change
IP-10 production, fold change compared to control ([1]; 1.3 µM, Day 14): 1.038 fold change
MCP-1 production, fold change compared to control ([1]; 1.3 µM, Day 14): 0.8586 fold change
MIP-1a production, fold change compared to control ([1]; 1.3 µM, Day 14): 0.6631 fold change
VEGF production, fold change compared to control ([1]; 1.3 µM, Day 14): 1.4873 fold change
IL-1RA production, fold change compared to control ([1]; 13 µM, Day 8): 1.265 fold change
IL-4 production, fold change compared to control ([1]; 13 µM, Day 8): 0.7184 fold change
IL-6 production, fold change compared to control ([1]; 13 µM, Day 8): 1.361 fold change
IL-8 production, fold change compared to control ([1]; 13 µM, Day 8): 0.9806 fold change
IP-10 production, fold change compared to control ([1]; 13 µM, Day 8): 0.6298 fold change
MCP-1 production, fold change compared to control ([1]; 13 µM, Day 8): 0.7964 fold change
MIP-1a production, fold change compared to control ([1]; 13 µM, Day 8): 0.7122 fold change
MIP-1b production, fold change compared to control ([1]; 13 µM, Day 8): 0.7615 fold change
VEGF production, fold change compared to control ([1]; 13 µM, Day 8): 1.5043 fold change
IL-1RA production, fold change compared to control ([1]; 13 µM, Day 14): 1.13 fold change
IL-4 production, fold change compared to control ([1]; 13 µM, Day 14): 0.4238 fold change
IL-6 production, fold change compared to control ([1]; 13 µM, Day 14): 0.6467 fold change
IL-8 production, fold change compared to control ([1]; 13 µM, Day 14): 0.4814 fold change
IP-10 production, fold change compared to control ([1]; 13 µM, Day 14): 0.5019 fold change
MCP-1 production, fold change compared to control ([1]; 13 µM, Day 14): 0.7625 fold change
MIP-1a production, fold change compared to control ([1]; 13 µM, Day 14): 0.5355 fold change
VEGF production, fold change compared to control ([1]; 13 µM, Day 14): 3.124 fold change
IL-1RA production, fold change compared to control ([1]; 65 µM, Day 8): 0.4291 fold change
IL-4 production, fold change compared to control ([1]; 65 µM, Day 8): 0.5702 fold change
IL-6 production, fold change compared to control ([1]; 65 µM, Day 8): 0.5734 fold change
IL-8 production, fold change compared to control ([1]; 65 µM, Day 8): 0.6965 fold change
IP-10 production, fold change compared to control ([1]; 65 µM, Day 8): 0.5276 fold change
MCP-1 production, fold change compared to control ([1]; 65 µM, Day 8): 0.2341 fold change
MIP-1a production, fold change compared to control ([1]; 65 µM, Day 8): 0.4239 fold change
VEGF production, fold change compared to control ([1]; 65 µM, Day 8): 1.511 fold change
IL-1RA production, fold change compared to control ([1]; 65 µM, Day 14): 0.4779 fold change
IL-4 production, fold change compared to control ([1]; 65 µM, Day 14): 0.2046 fold change
IL-6 production, fold change compared to control ([1]; 65 µM, Day 14): 0.3326 fold change
IL-8 production, fold change compared to control ([1]; 65 µM, Day 14): 0.254 fold change
IP-10 production, fold change compared to control ([1]; 65 µM, Day 14): 0.6289 fold change
MCP-1 production, fold change compared to control ([1]; 65 µM, Day 14): 0.1593 fold change
VEGF production, fold change compared to control ([1]; 65 µM, Day 14): 2.734 fold change
cytokine on which the drug had the greatest effect ([1]; NASH microtissues, high NPC, + TGFβ): MCP-1
Pro-collagen 1 ([2]; 1.3 uM): 415.15 pg/day and 440.97 pg/day and 422.37 pg/day
TIMP-1 ([2]; 1.3 uM): 239.08 pg/day and 252.67 pg/day and 220.1 pg/day
Pro-collagen 1 ([2]; 13 uM): 371.17 pg/day and 444.41 pg/day and 309.29 pg/day
TIMP-1 ([2]; 13 uM): 191.73 pg/day and 205.16 pg/day and 212.17 pg/day
Pro-collagen 1 ([2]; 65 uM): 282.32 pg/day and 426.16 pg/day and 245.63 pg/day
TIMP-1 ([2]; 65 uM): 278.05 pg/day and 246.83 pg/day and 169.84 pg/day
soluble biomarkers TIMP-1 and pro-collagen 1 ([2]; NASH + TGFβ, day 14 media): reduced by ELF treatment
